Usually IC50 stands for the point on the concentration scale where inhibition reaches its midpoint.

Data on 31 compounds can be found in patent US11524966B1 (Valo Early Discovery, Inc., priority 2017, dated 2022).

The target of one assay is T1, USP25 (USP25-His6, Boston Biochem E-546) (Homo sapiens, UniProt Q9UHP3).
T1 construct: His6; purchased Boston Biochem E-546
T1 sequence (Q9UHP3 1-1055): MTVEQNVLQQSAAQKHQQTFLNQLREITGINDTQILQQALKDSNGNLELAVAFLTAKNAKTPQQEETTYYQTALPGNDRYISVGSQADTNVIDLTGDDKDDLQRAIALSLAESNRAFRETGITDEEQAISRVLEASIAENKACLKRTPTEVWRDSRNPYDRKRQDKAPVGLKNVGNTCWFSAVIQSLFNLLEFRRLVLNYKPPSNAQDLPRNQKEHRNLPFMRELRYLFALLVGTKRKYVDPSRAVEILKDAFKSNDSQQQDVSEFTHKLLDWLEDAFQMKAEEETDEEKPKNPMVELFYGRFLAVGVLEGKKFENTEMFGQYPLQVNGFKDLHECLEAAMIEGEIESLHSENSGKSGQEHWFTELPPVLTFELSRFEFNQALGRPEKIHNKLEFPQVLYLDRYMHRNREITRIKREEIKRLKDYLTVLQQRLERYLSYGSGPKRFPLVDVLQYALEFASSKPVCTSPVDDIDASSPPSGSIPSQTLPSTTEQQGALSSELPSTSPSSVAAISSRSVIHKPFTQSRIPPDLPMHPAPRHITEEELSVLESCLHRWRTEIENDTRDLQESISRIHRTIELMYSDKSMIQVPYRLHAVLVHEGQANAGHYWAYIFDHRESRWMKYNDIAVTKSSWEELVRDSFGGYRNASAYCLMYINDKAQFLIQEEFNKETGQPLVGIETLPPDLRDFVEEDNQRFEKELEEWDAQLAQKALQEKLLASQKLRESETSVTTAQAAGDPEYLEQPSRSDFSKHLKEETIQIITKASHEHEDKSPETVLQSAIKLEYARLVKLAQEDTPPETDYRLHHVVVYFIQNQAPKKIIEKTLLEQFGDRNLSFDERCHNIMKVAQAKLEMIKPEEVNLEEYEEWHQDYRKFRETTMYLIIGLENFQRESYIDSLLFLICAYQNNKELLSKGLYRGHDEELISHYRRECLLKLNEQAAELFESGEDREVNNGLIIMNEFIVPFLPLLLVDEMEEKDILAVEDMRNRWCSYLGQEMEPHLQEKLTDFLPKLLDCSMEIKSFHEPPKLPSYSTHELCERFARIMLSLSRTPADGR
Nature of the assay: Ubiquitin-Rhodamine 110 Assay for USP25 Activity, Example A-2. The following applies: Ub-Rh110 assay, Example A-2; read-out: USP25 A-2 IC50 range. The assay is classed as biochemical. As to the method: The assay was performed in a final volume of 9 μL in assay buffer containing 20 mM Tris-HCl (pH 8.0, (1M Tris-HCl, pH 8.0 solution; Corning 46-031-CM)), 3 mM BME (2-Mercaptoethanol; Sigma 63689-25ML-F), 0.03% BGG (0.22 μM filtered, Sigma, G7516-25G), and 0.01% Triton X-100 (Sigma, T9284-10L). Nanoliter quantities of 10-point, 3-fold serial dilution in DMSO was pre-dispensed into 1536 assay plates (Corning, #3724BC) for a final test concentration of 25 μM to 1.3 nM, top to lowest dose, respectively. Enzyme USP25, construct USP25-His6, (Boston Biochem E-546). Concentration and incubation times were optimized for the maximal signal-to-background while maintaining initial velocity conditions at a fixed substrate concentration. The final concentration of the enzyme in the assay was 75 pM. Final substrate (Ub-Rh110; Ubiquitin-Rhodamine 110, R&D Systems #U-555) concentration was 25 nM with [Ub-Rh110]<<Km. 3 μL of 2× enzyme was added to assay plates (pre-stamped with compound) preincubated with […] for 30 minutes and then 3 μL of 2×Ub-Rh110 was added to assay plates. Plates were incubated for 45 minutes at room temperature before addition of 3 μL of stop solution (final concentration of 10 mM citric acid (Sigma, 251275-500G)). Fluorescence was read on the Envision (Excitation at 485 nm and Emission at 535 nm; Perkin Elmer) or on the PheraSTAR (Excitation at 485 nm and Emission at 535 nm; BMG Labtech).
IC50 values were determined by curve fitting of the standard 4 parameter logistic fitting algorithm included in the Activity Base software package: IDBS XE Designer Model 205. Data is fitted using the Levenburg Marquardt algorithm.
Turning to `Cc1nc2sc(C(=O)N[C@H]3COc4cc(N5CCNCC5)ccc4C3)c(N)c2cc1F` (single isomer, unassigned) [Example 1-15], the IC50 lay within 0.05 to 0.2 µM.
On the same count and under the same terms, in the case of `Cc1nc2sc(C(=O)N[C@H]3COc4cc(N5CC6CCCC(C5)N6)ccc4C3)c(N)c2s1` [Example 2-27] it was 0.2 to 2 µM; in that of `Cc1ccc2c(N)c(C(=O)N[C@H]3COc4cc(N5CCNCC5)ccc4C3)sc2n1` (single isomer, unassigned) [Example 1-1], 0.2 to 2 µM; in that of `Cc1nc2sc(C(=O)N[C@@H]3COc4cc(N5CCNCC5)ccc4C3)c(N)c2cc1F` (single isomer, unassigned) [Example 1-16], greater than 2 µM.
Consider `Cc1ccc2c(N)c(C(=O)N[C@H]3COc4cc(N5CCN[C@@H](C)C5)ccc4C3)sc2n1` [Example 2-8, 3-amino-6-methyl-N-((R)-7-((S)-3-methylpiperazin-1-yl)chroman-3-yl)thieno[2,3-b]pyridine-2-carboxamide], for which the IC50 is 0.2 to 2 µM.
On the same count and under the same terms, in the case of `Cc1ccc2c(N)c(C(=O)N[C@H]3COc4cc(N5CCC[C@@](N)(C(F)(F)F)C5)ccc4C3)sc2n1` (single isomer, unassigned) [Example 3-3] it was 0.05 to 0.2 µM; in that of `Cc1ccc2c(N)c(C(=O)N[C@H]3COc4cc(N5CCNC[C@H]5C)ccc4C3)sc2n1` [Example 2-5, 3-amino-6-methyl-N-((R)-7-((R)-2-methylpiperazin-1-yl)chroman-3-yl)thieno[2,3-b]pyridine-2-carboxamide], 0.001 to 0.05 µM.
With `CCn1ccc2cc(C(=O)N[C@@H]3COc4cc(N5CC6CCC(C5)N6)ccc4C3)cnc21` (single isomer, unassigned) [Example 1-27], the IC50 was greater than 2 µM.
On the same count and under the same terms, in the case of `O=C(N[C@H]1COc2cc(N3CC4CCC(C3)N4)ccc2C1)c1ccc(NCc2ccccc2)nc1` [Example 2-25, N-((3R)-7-(3,8-diazabicyclo[3.2.1]octan-3-yl)chroman-3-yl)-6-(benzylamino)nicotinamide] it was 0.05 to 0.2 µM; in that of `Cc1ccc2c(N)c(C(=O)N[C@@H]3COc4cc(N5CC6CCC(C5)N6)ccc4C3)sc2n1` (single isomer, unassigned) [Example 1-4], greater than 2 µM; in that of `Cc1ccc2c(N)c(C(=O)N[C@H]3COc4cc(N5CCNCC5)c(F)cc4C3)sc2n1` [Example 1-35, (R)-3-amino-N-(6-fluoro-7-(piperazin-1-yl)chroman-3-yl)-6-methylthieno[2,3-b]pyridine-2-carboxamide], 0.2 to 2 µM.
Still for that read-out and setting: the result for `Cc1cnc2c(N)c(C(=O)N[C@@H]3COc4cc(N5CCNCC5)ccc4C3)sc2n1` (single isomer, unassigned) [Example 1-22] reads greater than 2 µM; that for `Cc1ccc2c(N)c(C(=O)N[C@H]3COc4cc(N5CCNCC5)c(OC(F)(F)F)cc4C3)sc2n1` (single isomer, unassigned) [Example 1-31], greater than 2 µM; that for `Cc1nc2sc(C(=O)N[C@@H]3COc4cc(N5CCNCC5)ccc4C3)c(N)c2s1` [Example 1-26, (S)-6-amino-2-methyl-N-(7-(piperazin-1-yl)chroman-3-yl)thieno[2,3-d]thiazole-5-carboxamide], greater than 2 µM.
The same measure, in the same setting: in the case of `Cc1ccc2c(N)c(C(=O)N[C@@H]3COc4cc(N5CCN[C@H](C)[C@H]5C)ccc4C3)sc2n1` (single isomer, unassigned) [Example 1-12] it was 0.001 to 0.05 µM; in that of `CCn1ccc2cc(C(=O)N[C@H]3COc4cc(N5CC6CCC(C5)N6)ccc4C3)cnc21` (single isomer, unassigned) [Example 1-28], 0.05 to 0.2 µM; in that of `Cc1cnc2c(N)c(C(=O)N[C@H]3COc4cc(N5CC6CC(C5)N6)ccc4C3)sc2n1` [Example 2-11, N-((3R)-7-(3,6-diazabicyclo[3.1.1]heptan-3-yl)chroman-3-yl)-7-amino-3-methylthieno[2,3-b]pyrazine-6-carboxamide], 0.05 to 0.2 µM.
In the case of `Cc1cnc2c(N)c(C(=O)N[C@H]3COc4cc(N5CCNCC5)ccc4C3)sc2n1` (single isomer, unassigned) [Example 1-21], the IC50 lay within 0.2 to 2 µM.
For `Cc1nc2sc(C(=O)N[C@H]3COc4cc(N5CCNCC5)cc(F)c4C3)c(N)c2s1` (single isomer, unassigned) [Example 1-37], the IC50 is greater than 2 µM.
On the same count and under the same terms, in the case of `Cc1nc2sc(C(=O)N[C@H]3COc4cc(N5CC6CCC(C5)N6)ccc4C3)c(N)c2s1` [Example 1-23, N-((3R)-7-(3,8-diazabicyclo[3.2.1]octan-3-yl)chroman-3-yl)-6-amino-2-methylthieno[2,3-d]thiazole-5-carboxamide] it was 0.2 to 2 µM; in that of `Nc1c(C(=O)N[C@@H]2COc3cc(N4CC5CCC(C4)N5)ccc3C2)sc2ncc(F)cc12` (single isomer, unassigned) [Example 1-18], greater than 2 µM.
Still for that read-out and setting: in the case of `Cc1ccc2c(N)c(C(=O)N[C@H]3COc4cc(N5CCN[C@@H](C)[C@@H]5C)ccc4C3)sc2n1` (single isomer, unassigned) [Example 1-13] it was 0.2 to 2 µM.
For `Cc1ccc2c(N)c(C(=O)N[C@@H]3COc4c(ccc(N5CCNCC5)c4F)C3)sc2n1` [Example 1-34, (S)-3-amino-N-(8-fluoro-7-(piperazin-1-yl)chroman-3-yl)-6-methylthieno[2,3-b]pyridine-2-carboxamide], the IC50 was greater than 2 µM.
Still for that read-out and setting: in the case of `Cc1ccc2c(N)c(C(=O)N[C@H]3COc4cc(N5CCCC56CNC6)ccc4C3)sc2n1` [Example 2-7, (R)-N-(7-(2,5-diazaspiro[3.4]octan-5-yl)chroman-3-yl)-3-amino-6-methylthieno[2,3-b]pyridine-2-carboxamide] it was 0.2 to 2 µM.
As to `Cc1cnc2c(N)c(C(=O)N[C@H]3CCc4cc(N5CCNCC5)c(C)cc4C3)sc2n1` (single isomer, unassigned) [Example 2-34], the IC50 is greater than 2 µM.
Same read-out and setting: in the case of `Cc1nc2sc(C(=O)N[C@H]3COc4cc(N5CCNCC5)ccc4C3)c(N)c2s1` [Example 1-25, (R)-6-amino-2-methyl-N-(7-(piperazin-1-yl)chroman-3-yl)thieno[2,3-d]thiazole-5-carboxamide] it was 0.2 to 2 µM; in that of `Cc1ccc2c(N)c(C(=O)N[C@H]3COc4cc(N5CC6CC(C5)N6)cc(F)c4C3)sc2n1` (single isomer, unassigned) [Example 1-42], greater than 2 µM; in that of `Cc1ccc2c(N)c(C(=O)N[C@H]3COc4c(ccc(N5CCNCC5)c4F)C3)sc2n1` [Example 1-33, (R)-3-amino-N-(8-fluoro-7-(piperazin-1-yl)chroman-3-yl)-6-methylthieno[2,3-b]pyridine-2-carboxamide], 0.05 to 0.2 µM.
The same measure, in the same setting: in the case of `Cc1nc2sc(C(=O)N[C@@H]3COc4cc(N5CC6CCC(C5)N6)ccc4C3)c(N)c2s1` [Example 1-24, N-((3S)-7-(3,8-diazabicyclo[3.2.1]octan-3-yl)chroman-3-yl)-6-amino-2-methylthieno[2,3-d]thiazole-5-carboxamide] it was greater than 2 µM; in that of `Nc1c(C(=O)N[C@H]2COc3cc(N4CC5CCC(C4)N5)ccc3C2)sc2ncc(F)cc12` (single isomer, unassigned) [Example 1-17], 0.2 to 2 µM.

Staying with this assay, now noted: Ubiquitin-Rhodamine 110 assay, Example A-2; read-out: USP25 A-2 IC50 range.
As for `Cc1cnc2c(N)c(C(=O)N[C@H]3CCc4nc(N5CCNCC5)ccc4C3)sc2n1` [Example 23-6, 7-amino-3-methyl-N-[(6S)-2-(piperazin-1-yl)-5,6,7,8-tetrahydroquinolin-6-yl]thieno[2,3-b]pyrazine-6-carboxamide], the IC50 was 0.2 to 2 µM.
